Experimental data taken from EPA's ToxValDB 9.5 (doi:10.2903/j.efsa.2010.1873).
In brackets after ≈: the same amount, converted by molar mass.

What was measured:
[1] = tested on: Aphidius rhopalosiphi; test: LR50; higher = less toxic; details: not reported; mortality
[2] = tested on: Daphnia magna; details: chronic/long-term; duration: 21 days; reproduction
[3] = tested on: Lepomis macrochirus; details: acute; duration: 96 hours; mortality
[4] = tested on: Anabaena flosaquae; details: acute; duration: 72 hours; biomass
[5] = tested on: Anas platyrhynchos; details: oral, mortality
[6] = tested on: Rattus norvegicus
[7] = tested on: Canidae; details: subchronic; duration: 90 days; oral; Dog Other; clinical chemistry
[8] = tested on: Bibionidae; details: chronic/long-term; duration: 28 days; development
[9] = tested on: Colinus virginianus
[10] = tested on: Tagia sp.; details: acute, duration: 14 days
[11] = tested on: Landoltia sp.; details: acute; duration: 7 days; biomass
[12] = tested on: Oncorhynchus mykiss; details: chronic/long-term; duration: 21 days; mortality
[13] = tested on: Apis mellifera; details: acute; duration: 48 hours; oral; unspecified; mortality

| Structure (SMILES) | LR50 [1] | NOEC [2] | LC50 [3] | NOEC [4] | LC50 ([5]; short-term, feed) | LD50 ([6]; acute, oral, mortality) | NOAEL ([6]; developmental, development) | NOEL ([6]; reproduction developmental, reproduction) | NOAEL [7] | NOEC [8] | LC50 ([9]; acute, oral, diet, mortality) | LD50 ([9]; acute, oral, mortality) | NOEC ([9]; reproduction developmental) | NOEC ([10]; body weight) | LC50 ([10]; mortality) | NOEC [11] | NOEC [12] | LD50 [13] | LD50 ([5]; acute, unspecified) |
| --- | --- | --- | --- | --- | --- | --- | --- | --- | --- | --- | --- | --- | --- | --- | --- | --- | --- | --- | --- |
| N#CN [Cyanamide] | 432 g/ha | 0.1 mg/L | 43.1 µg/mL (≈ 1030 µM) | 0.05 mg/L | > 435 mg/kg-day | 223 mg/kg-day | 5 mg/kg-day | 3.75 mg/kg-day | 0.6 mg/kg-day | 6.6 mg/L | > 1040 mg/kg-day | 350 mg/kg-day | 13.3 mg/kg-day | 55.7 mg/kg | > 112 mg/kg | 0.5 mg/L | 3.7 mg/L | > 10 µg/piece |  |
| N#CN=C(N)N [Cyanoguanidine] |  |  |  |  |  |  |  |  |  |  |  |  |  |  |  |  |  |  | > 2000 mg/kg-day |
